Experiments:
[1] = tested on: Subjects with diagnosed irritable bowel syndrome (IBS); experiment: Clinical (oral) treatment of irritable bowel syndrome; type: in vivo, human
Experimental: The subjects keep a health diary in which their symptoms of irritable bowel syndrome are recorded.

[2] = tested on: wild-type female C57BL/6 mice; experiment: Preclinical Lieber-DeCarli ethanol diet mouse model (alcoholic liver disease / intestinal barrier function); type: in vivo
Text: Age-matched wild-type female C57BL/6 mice (Charles River, Wilmington, Mass.), 8-9 weeks old at the initiation of the study, were used.
The Lieber-DeCarli ethanol diet was originally developed by Charles Lieber and Leonore DeCarli in 1963. This diet allows for the prolonged exposure of ethanol in a rodent model and allows for modification to calories provided by ethanol. […] The caloric intake from ethanol was 0% on day 1, 10% on days 2 and 3, 20% on days 4 and 5, 30% from day 6 until the end of 6 weeks, and 36% for the last 2 weeks, for a total in-life time of eight weeks. The ethanol-fed mice also received one bolus dose of 33% v/v ethanol at 5 g/Kg on the last in-life day. The control diet contained an isocaloric substitution of isomaltose for the ethanol. […] In the prevention portions of the study, including with the control diet, seladelpar was added throughout the entire study period; in the intervention portion of the study, seladelpar was added only for the fifth through eighth weeks. Fresh feces were collected at 7.5 weeks. All mice were sacrificed after eight weeks; the ethanol-fed mice eight hours after the ethanol bolus. At sacrifice, body and liver weight were recorded; and blood/plasma, liver, gallbladder, small and large intestine (wall and contents) and cecum were harvested. Analyses included plasma ALT—to measure […]; hepatic TGs; plasma lipopolysaccharides (LPS)—to measure the extent of bacterial leakage from the intestine into the blood; fecal albumin (FA)—to measure the extent of albumin leakage from the blood into the intestine (feces); and total bile acids, measured by liquid chromatography-mass spectrometry (LC-MS) generally according to the method described in Hartmann et al., “Modulation of the Intestinal Bile Acid/Farnesoid X Receptor/Fibroblast Growth Factor 15 Axis Improves Alcoholic Liver Disease in Mice”, Hepatology, 67(6), 2150-2166 (2018).
The study results are given in the table below: standard errors of the means are in parentheses, n denotes the number of mice measured, and ANOVA denotes the significance value of an ANOVA analysis between groups 3, 4, and 5:
Formalin-fixed liver sections were stained for histological examination with hematoxylin and eosin (H+E).

PPARα = molecular target: T1, PPARα (Homo sapiens, UniProt Q07869); settings: cited from earlier work
T1 sequence (Q07869 1-468): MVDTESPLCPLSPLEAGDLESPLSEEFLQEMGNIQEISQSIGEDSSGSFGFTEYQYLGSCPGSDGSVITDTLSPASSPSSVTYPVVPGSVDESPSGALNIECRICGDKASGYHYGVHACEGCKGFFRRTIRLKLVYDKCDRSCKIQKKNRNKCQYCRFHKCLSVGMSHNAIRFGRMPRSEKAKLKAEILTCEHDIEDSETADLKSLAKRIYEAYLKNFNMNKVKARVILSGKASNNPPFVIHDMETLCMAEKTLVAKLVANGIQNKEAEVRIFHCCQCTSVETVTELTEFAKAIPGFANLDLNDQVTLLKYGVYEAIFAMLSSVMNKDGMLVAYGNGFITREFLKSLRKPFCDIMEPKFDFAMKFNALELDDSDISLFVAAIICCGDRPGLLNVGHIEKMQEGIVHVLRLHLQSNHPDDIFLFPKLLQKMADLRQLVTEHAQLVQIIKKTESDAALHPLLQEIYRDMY

[3] = tested on: atherogenic diet-fed obese diabetic (Alms1 mutant (foz/foz)) mice; settings: cited from earlier work
[4] = tested on: male RAG2−/− mice on C57BL/6 background; experiment: Preclinical adoptive T-cell transfer colitis; type: in vivo; settings: 10 mg/Kg/day in drinking water, day 14 to day 42
Text: The cell donor animals are male C57BL/6 mice and the recipient animals are male RAG2^−/− mice on C57BL/6 background, aged 6-8 weeks at the start of the study. Recipient animals (20 +12 per test compound) are assigned: 5 to form a control group receiving no cell transfer or treatment, and the remainder to receive cell transfer. At day 0, the donor animals are sacrificed and spleens excised, dissociated to a single cell suspension, and the red blood cells lysed. The cell suspension is enriched for CD4+ T cells using a Miltenyi CD4+ T cell isolation kit, then further enriched for naïve CD4+ T cells using a Miltenyi naïve CD4+ T cell isolation kit. […] The animals are weighed daily and assessed visually for presence and severity of diarrhea and bloody stools, with video endoscopy on days 14, 28, and 42 to assess the severity of the colitis and score stool consistency. All animals are sacrificed at day 42 following endoscopy and samples collected: blood is collected and processed for plasma, the colon is excised, measured, rinsed, weighed, and trimmed to the most distal 5 cm, of this distal and proximal 2 cm portions are placed in formalin for histological evaluation, while the central 1 cm is snap-frozen in liquid nitrogen, and stored for analysis; and the liver is excised, weighed, snap-frozen in liquid nitrogen, and stored for analysis.

[5] = alcohol diet, groups 4 and 5 vs untreated group 3, ANOVA

CCO[C@H](COc1ccc(C(F)(F)F)cc1)CSc1ccc(OCC(=O)O)c(C)c1 [seladelpar]
IBS symptoms recorded in health diary ([1]; 2, 5, 10, 20, 50 or 100 mg/day oral for 12 weeks): general improvement in their IBS symptoms
improvement of disease (management of IBS, gastrointestinal symptoms) ([1]; 2-100 mg/day oral for 12 weeks): dose-related improvement in their disease
liver histology (H+E) ([2]; alcohol diet, prevention and intervention, comparing group 3 with groups 4 and 5): significant reduction of steatosis and restoration of a more normal architecture
serum ALT, change versus untreated ([2]; alcohol diet, groups 4 and 5 (prevention and intervention) vs untreated group 3, ANOVA): significant reductions (improvements)
fecal albumin, change versus untreated [2, 5]: significant reduction (improvement)
hepatic TGs, change versus untreated [2, 5]: significant reductions (improvements)
serum LPS, change versus untreated [2, 5]: significant reductions (improvements)
total bile acids, change versus untreated [2, 5]: significant reductions (improvements)
effect on ALT, hepatic TGs, plasma LPS, FA and total bile acids (any of the above parameters) ([2]; control diet groups, seladelpar prevention (group 2 vs group 1)): did not significantly affect
liver histology (H+E) ([2]; control diet, comparing groups 1 and 2): no significant change
specificity for PPARδ compared with PPARα (PPARα): > 600 fold
NASH pathology (hepatic steatosis, inflammation, fibrosis) [3]: improves NASH pathology
colitis (body weight, endoscopic and histologic examination) [4]: ameliorates the colitis

— patent US20210145775A1, “Treatment of intestinal barrier dysfunction and associated diseases” (CymaBay Therapeutics, Inc., priority 2019, published 2021)
